{"source": "patent US20250270576A1", "about": "“AGRICULTURAL COMPOSITIONS AND METHODS OF USING THE SAME” (Arizona Board of Regents on behalf of Arizona State …, priority 2021, published 2025)", "test_system": "Col-0 plants", "experiment": "growth of wild type plants in the presence of 2,3 butanediol", "type": "in vivo, Arabidopsis thaliana", "description": "Top left: phenotypes of Col-0 (wild type; Arabidopsis thaliana) and genetically modified plants expressing the transgenic PROTON (H+-) pyrophosphatase in all tissues (AVP1) or in phloem cells only (pCoY), where average yields are AVP1>pCoY>Col-0 (FIG. 7). Left center: differential root acidification capacity of each genotype. Left bottom: 16S rRNA based composition of the root associated microbiomes (RAMs) through principal component analyses. Middle: Metabolomic profile of root exudates of the three plant genotypes, depicted as a heat map of relative concentration (each column a pools n>3 plants). Top right: Enrichment of proportional abundance of query and control pathways in the metagenome of rhizosphere RAMs. Middle right: Effect of exposure to 250 μM 2,3-butanediol on root development of Col-0 plants. Bottom right: mechanistic model for plant-microbe interactions at the base of phenotype enhancement and transferability.\nTo determine how the plant genotype can be made extensive to the RAM, we made use of a second mutant plant (pCoYMV::AVP1; pCoY hereafter), which overexpresses the H+-PPase in companion cells and sieve elements of the plant's phloem (22). […] We then assessed a second potential driver: root exudates. We determined the root exudate profiles, or exometabolome (23), of the three genotypes when grown under sterility on agar-solidified medium. […]", "data": [{"smiles": "CC(O)C(C)O", "note": "(centres unmarked) [2,3 butanediol, 2,3-butanediol]", "values": [{"measurement": "phenotype in root development of wild type plants", "setting": "wild type (Col-0) plants exposed to 250 μM 2,3-butanediol (FIG. 3)", "result": "AVP1-like, high yield phenotypes"}, {"measurement": "phenotype in shoots of wild type plants", "setting": "wild type (Col-0) plants grown in the presence of 2,3 butanediol, 250 μM per FIG. 3 legend", "result": "AVP1-like, high yield phenotypes"}]}]}
